In assay [1] the target is T1, ACAT2 (Homo sapiens (Human), UniProt O75908). The experiment in a line: Inhibitory effect on ACAT2 activity, NBD22-fluorescent labeled sterol method in intact HepG2 cells. In kind it is cell-based. As to conditions: for IC50: NBD22-fluorescent labeled sterol, 6 hours incubation; for inhibition rate % on ACAT2 activity: relative inhibition rate with Pyripyropene A (0.2 μM) as the 100% inhibition control. On the procedure: An inhibition curve was plotted based on that different concentrations of compounds would cause the fluorescence intensity to change by inhibiting the synthesis of the ester containing NBD22-fluorescent labeled sterol, thereby IC50 was calculated.
T1 sequence (O75908 whole entry): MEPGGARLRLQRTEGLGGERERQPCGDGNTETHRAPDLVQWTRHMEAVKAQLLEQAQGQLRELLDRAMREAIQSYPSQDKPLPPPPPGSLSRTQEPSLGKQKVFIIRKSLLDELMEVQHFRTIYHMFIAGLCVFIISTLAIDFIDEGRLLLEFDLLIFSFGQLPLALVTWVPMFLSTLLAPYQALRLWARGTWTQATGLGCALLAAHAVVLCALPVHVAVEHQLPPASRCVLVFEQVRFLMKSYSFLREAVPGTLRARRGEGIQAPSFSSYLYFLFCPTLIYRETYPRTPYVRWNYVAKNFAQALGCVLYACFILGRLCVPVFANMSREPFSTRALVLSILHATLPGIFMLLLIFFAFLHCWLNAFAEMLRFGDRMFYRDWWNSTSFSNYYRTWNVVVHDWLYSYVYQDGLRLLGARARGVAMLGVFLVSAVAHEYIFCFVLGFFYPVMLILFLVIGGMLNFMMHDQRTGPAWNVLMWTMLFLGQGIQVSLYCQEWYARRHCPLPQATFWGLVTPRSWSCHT
HepG2 cells were cultured in a 96-well plate at a starting density of 1.5×10^4 cells per well for 24 hours. After the cholesterol mixture was well mixed, the cells were cultured for another 24 hours. Then NBD22-fluorescent labeled sterol at a final concentration of 0.5 μg/ml, and compounds at a final concentration gradient of 0, 0.008, 0.04, 0.2, 1 and 5 μM were added. Three wells were set for each concentration. After incubating for 6 hours, the fluorescence intensity was measured using a fluorescence analyzer (E488, A535). The fluorescence intensity values were plotted against different concentrations of the compounds and IC50 was obtained.

Assay [2] deals with T1, ACAT2. The experiment in a line: Cholesterol oxidase method for ACAT activity in HepG2 cells, ACAT2. It counts as cell-based. The following applies: 10 μg/ml cholesterol, 9 hours. As for the experimental part: HepG2 cells were used for testing the inhibitory effect of compounds at different concentrations on ACAT1 or ACAT2 activity, thereby obtaining IC50 to calculate SI(ACAT1-IC50/ACAT2-IC50).
HepG2 cells were cultured in a 6-well plate at a starting density of 4×10^5 cells per well for 24 hours, then the medium was replaced and 10 μg/ml of cholesterol and the compounds at different concentrations were added. The cells were cultured for another 9 hours and cholesterol amounts of the cells were measured with Cholesterol Assay kit.

The record followed here is patent US10278962B2, “Tricyclic analogues, preparation method and uses thereof” (SHANGHAI INSTITUTE OF MATERIA MEDICA, CHINESE ACADEMY OF …, priority 2015, dated 2019).

By IC50 is commonly meant the midpoint of a concentration-inhibition curve. Read a low IC50 as greater potency in that assay. In assay [1], `CC(=O)OCC(C)(OC(C)=O)[C@H]1CC2[C@@H](O)c3c(cc(-c4cccnc4)oc3=O)O[C@]2(C)[C@@H](OC(C)=O)C1` (stereo in doubt) [Compound 16] yielded an IC50 of 0.245 µM. `CC(=O)OCC(COC(C)=O)[C@@H]1C[C@H](OC(C)=O)[C@@]2(C)Oc3cc(-c4cccnc4)oc(=O)c3C(=O)[C@@H]2C1` [Compound 2]: the “inhibition rate % on ACAT2 activity” value in assay [1] is 104%.

Take `CC(=O)OCC(C)(OC(C)=O)[C@@H]1C[C@H](OC(C)=O)[C@@]2(C)Oc3cc(-c4cccnc4)oc(=O)c3C(=O)[C@@H]2C1` (stereo partly shown) [Compound 3]: the “inhibition rate % on ACAT2 activity” value in assay [1] amounted to 90%.

As for `CC(=O)OCC(COC(C)=O)[C@@H]1C[C@H](OC(C)=O)[C@@]2(C)Oc3cc(-c4cccnc4)oc(=O)c3[C@@H](O)[C@@H]2C1` [Compound 6], the “inhibition rate % on ACAT2 activity” value in assay [1] was found to be 90%. In the case of `CC(=O)OCC(C)(OC(C)=O)[C@@H]1C[C@H](OC(C)=O)[C@@]2(C)Oc3cc(-c4cccnc4)oc(=O)c3[C@@H](O)[C@@H]2C1` (stereo partly shown) [Compound 7], the results for the IC50 in assay [1] and in assay [2] were 0.152 µM and 0.147 µM, respectively. In the case of `CC(=O)OCC(C)(OC(C)=O)[C@@H]1C[C@H](OC(=O)c2ccc(C#N)cc2)[C@@]2(C)Oc3cc(-c4cccnc4)oc(=O)c3[C@@H](OC(C)=O)[C@@H]2C1` (stereo partly shown) [Compound 8], the IC50 in assay [1] was determined as 0.086 µM; in assay [2], 0.061 µM.

On to `CC(O)(COC(=O)c1ccc(C#N)cc1)[C@@H]1C[C@H](OC(=O)c2ccc(C#N)cc2)[C@@]2(C)Oc3cc(-c4cccnc4)oc(=O)c3C(=O)[C@@H]2C1` (stereo partly shown) [Compound 13], for which the results for the IC50 in assay [1] and in assay [2] were 0.023 µM and 0.012 µM, respectively. For the compound `CC(O)(COC(=O)c1ccc(C#N)cc1)[C@@H]1C[C@H](O)[C@@]2(C)Oc3cc(-c4cccnc4)oc(=O)c3C(=O)[C@@H]2C1` (stereo partly shown) [Compound 14], the results for the concentration for half-maximal inhibition (IC50) in assay [1] and in assay [2] were 0.103 µM and 0.129 µM, respectively.

Take `CC(=O)OCC(C)(OC(C)=O)[C@@H]1C[C@H](OC(C)=O)[C@@]2(C)Oc3cc(-c4cccnc4)oc(=O)c3[C@@H](O)[C@@H]2C1` (stereo partly shown) [Compound 15]: the midpoint of inhibition in assay [1], the IC50, lay at 0.831 µM.

For `CC(=O)OC[C@](C)(OC(C)=O)[C@@H]1C[C@@H]2[C@@H](O)c3c(cc(-c4cccnc4)oc3=O)O[C@@]2(C)[C@H](OC(C)=O)C1` [Compound 21], the IC50 in assay [1] stood at 0.078 µM; in assay [2], 0.055 µM. On the same counts, the results for `CC(=O)OC[C@](C)(OC(C)=O)[C@H]1C[C@@H](OC(C)=O)[C@]2(C)Oc3cc(-c4cccnc4)oc(=O)c3[C@@H](O)[C@@H]2C1` [Compound 22] are 0.086 µM and 0.09 µM. In assay [1], `CC(=O)OC[C@](C)(OC(C)=O)[C@@H]1C[C@@H]2[C@H](O)c3c(cc(-c4cccnc4)oc3=O)O[C@@]2(C)[C@H](OC(C)=O)C1` [Compound 26] yielded an IC50 of 0.433 µM. Compound `CC(=O)OC[C@](C)(O)[C@H]1C[C@@H](O)[C@]2(C)Oc3cc(-c4cccnc4)oc(=O)c3[C@H](O)[C@H]2C1` [Compound 29] returned an IC50 in assay [1] of 0.081 µM.
